Results taken from PubChem BioAssay (NCI).
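Each compound was tested at five concentrations against cells in 96-well plates for 48 hours. GI50: concentration for 50% inhibition of growth. TGI: concentration producing complete growth inhibition.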

How the values were obtained:
Test in all cases: NCI-60 cell line screen, 48 h
[1] = tested on: SK-OV-3 ovarian
[2] = tested on: HOP-62 NSCLC
[3] = tested on: K-562 leukemia
[4] = tested on: UO-31 renal
[5] = tested on: HT29 colon
[6] = tested on: SNB-19 CNS
[7] = tested on: EKVX NSCLC
[8] = tested on: HCT-15 colon
[9] = tested on: OVCAR-8 ovarian
[10] = tested on: SF-268 CNS

SMILES	GI50 [1]	TGI [1]	GI50 [2]	TGI [2]	GI50 [3]	TGI [3]	GI50 [4]	TGI [4]	GI50 [5]	TGI [5]	GI50 [6]	TGI [6]	GI50 [7]	TGI [7]	GI50 [8]	TGI [8]	GI50 [9]	TGI [9]	GI50 [10]	TGI [10]
CCOC(=O)[C]1([Bi]([CH3])[CH3])N=NC(C(=O)OC)=C1C(=O)OC (stereo unspecified)	> 100 µM	> 100 µM	> 100 µM	> 100 µM	16.5 µM	65.7 µM	20.3 µM	34.5 µM	19.3 µM	39.4 µM	26 µM	66 µM	18.7 µM	36.5 µM	20.7 µM	49.6 µM	19.2 µM	42.3 µM	17.2 µM	31.7 µM
C[C@]12CC[C@H]3[C@@H](CC=C4C[C@@H](O)CC[C@@]43C)[C@@H]1CC[C@@H]2N(CCO)CCO	–	> 100 µM	–	> 100 µM	–	> 100 µM	–	> 100 µM	–	> 100 µM	–	> 100 µM	–	78.1 µM	–	> 100 µM	–	> 100 µM	–	> 100 µM
O=C1CCC(=O)N2CCCCN12	–	> 100 µM	–	> 100 µM	–	> 100 µM	–	> 100 µM	–	> 100 µM	–	> 100 µM	–	> 100 µM	–	> 100 µM	–	> 100 µM	–	> 100 µM
N#Cc1ccc(NC(=O)Nc2ccc(Oc3ccc(NC(=O)Nc4ccc(C#N)cc4)cc3)cc2)cc1	11.1 µM	46.3 µM	3.06 µM	20.6 µM	2.11 µM	> 100 µM	22.2 µM	> 100 µM	90 µM	> 100 µM	20 µM	88.7 µM	10.3 µM	> 100 µM	18 µM	> 100 µM	14.4 µM	> 100 µM	10.8 µM	> 100 µM
Cc1ccc2c(c1)[n+]([O-])c(N)n[n+]2[O-]	–	> 100 µM	–	> 100 µM	–	> 100 µM	–	> 100 µM	–	> 100 µM	–	> 100 µM	–	> 100 µM	–	> 100 µM	–	> 100 µM	–	> 100 µM
CCCn1cnc2c(SCc3ccccc3Cl)nc(N)nc21	14.9 µM	> 100 µM	21.1 µM	> 100 µM	6.55 µM	> 100 µM	10.8 µM	63.5 µM	7.59 µM	> 100 µM	25.8 µM	> 100 µM	24.2 µM	> 100 µM	1.36 µM	20.1 µM	15.3 µM	> 100 µM	12.1 µM	92.7 µM
O/N=C/C1c2ccccc2-c2ccccc21	–	36.2 µM	–	34.2 µM	–	67.3 µM	–	32.4 µM	–	28.6 µM	–	38.6 µM	–	28.2 µM	–	40.2 µM	–	41.5 µM	–	37.6 µM
O=C1O[C@@H](c2ccc3c(c2)OCO3)C2C(=O)O[C@@H](c3ccc4c(c3)OCO4)C12 (stereo partly specified)	–	> 100 µM	–	> 100 µM	–	> 100 µM	–	> 100 µM	–	> 100 µM	–	> 100 µM	–	> 100 µM	–	> 100 µM	–	> 100 µM	–	> 100 µM
CCOC(=O)C1=C(OC(OCC)C(CC)[Se]c2ccccc2)CCCC1 (stereo unspecified)	–	> 100 µM	–	> 100 µM	–	> 100 µM	–	> 100 µM	–	62 µM	–	> 100 µM	–	78.9 µM	–	41.2 µM	–	42.1 µM	–	41.6 µM
CC[C@]1(O)C[C@@H]2CN(CCc3c([nH]c4ccccc34)[C@@](C(=O)OC)(c3cc4c(cc3OC)N(C)[C@H]3[C@@](O)(C(=O)OC)[C@H](OC(C)=O)[C@]5(CC)C=CCN6CC[C@]43[C@@H]65)C2)C1	–	45 µM	< 0.01 µM	24.1 µM	< 0.01 µM	14.6 µM	0.175 µM	19.1 µM	< 0.01 µM	18.9 µM	< 0.01 µM	> 100 µM	–	> 79 µM	< 0.0116 µM	14.6 µM	< 0.01 µM	> 100 µM	< 0.0281 µM	19.5 µM
COc1cc(C2=NOC(c3cc(OC)c(OC)c(OC)c3)C2)ccc1OCCCCOc1cc2c(cc1OC)C(=O)N1CCC[C@H]1C=N2 (stereo partly specified)	0.446 µM	3.81 µM	0.29 µM	0.709 µM	1.72 µM	–	0.239 µM	0.745 µM	0.358 µM	> 33.2 µM	1.31 µM	–	0.471 µM	5.43 µM	1.46 µM	5.43 µM	0.39 µM	10.9 µM	0.4 µM	5.68 µM
O=C(N/N=C/c1ccccc1O)c1ccccc1Nc1ccnc(C(F)(F)F)c1	0.649 µM	38 µM	0.41 µM	13.4 µM	0.53 µM	> 100 µM	0.291 µM	3.12 µM	3.32 µM	53.5 µM	1.77 µM	> 100 µM	0.302 µM	67.2 µM	0.177 µM	> 100 µM	0.711 µM	> 37.4 µM	0.448 µM	> 89.3 µM
O=C(/C=C/c1c(O)ccc2ccccc12)c1cccc(O)c1	–	> 100 µM	–	> 100 µM	–	> 100 µM	–	> 100 µM	–	> 100 µM	–	> 100 µM	–	> 100 µM	–	> 100 µM	–	> 100 µM	–	> 100 µM
CC[C@@H]1CN(C)[C@H]2Cc3c([nH]c4ccccc34)C(=O)C[C@H]1C2C(=O)OC (stereo partly specified)	–	> 100 µM	–	> 100 µM	–	> 100 µM	–	> 100 µM	–	> 100 µM	–	> 100 µM	–	> 100 µM	–	> 100 µM	–	> 100 µM	–	> 100 µM
CC(C)(C)OC(=O)N1CCc2c(sc3ncnc(N/N=C/c4cccc5ccccc45)c23)C1	4 µM	> 100 µM	3.79 µM	> 100 µM	2.88 µM	62.4 µM	2.68 µM	14.9 µM	4.07 µM	> 100 µM	5.05 µM	> 100 µM	3.64 µM	> 100 µM	3.86 µM	> 100 µM	4.23 µM	> 100 µM	4.59 µM	> 100 µM
Oc1ccc(CN2CCC(N3CCCCC3)CC2)c2cccnc12	24.8 µM	> 100 µM	6.25 µM	> 100 µM	2.23 µM	> 100 µM	6.2 µM	34.6 µM	93.7 µM	> 100 µM	21.6 µM	> 100 µM	32.4 µM	> 100 µM	5.83 µM	> 100 µM	7.69 µM	> 100 µM	7.06 µM	> 100 µM
CS(=O)(=O)c1ccc([C@H]2O[C@@H](CO)C[C@]2(O)c2ccc(S(C)(=O)=O)cc2)cc1	> 100 µM	> 100 µM	> 100 µM	> 100 µM	> 100 µM	> 100 µM	> 100 µM	> 100 µM	> 100 µM	> 100 µM	> 100 µM	> 100 µM	> 100 µM	> 100 µM	> 100 µM	> 100 µM	> 100 µM	> 100 µM	> 100 µM	> 100 µM
O=c1c2cc([N+](=O)[O-])ccc2sc2ccsc12	–	> 100 µM	–	> 100 µM	–	> 100 µM	–	> 100 µM	–	> 100 µM	–	> 100 µM	–	> 100 µM	–	> 100 µM	–	> 100 µM	–	> 100 µM
CCOc1cc2c(Cl)ncnc2c(OCC)c1OCC	16.5 µM	30.5 µM	15.5 µM	30.9 µM	2.72 µM	12.5 µM	8.45 µM	23.6 µM	7.59 µM	32.9 µM	8.8 µM	21.4 µM	13.3 µM	29.5 µM	2.56 µM	9.07 µM	6.34 µM	28.5 µM	2.84 µM	7.9 µM
NC(=O)C(=O)N/N=C(\CC1(O)C(=O)Nc2ccccc21)c1ccc2ccccc2c1 (stereo unspecified)	–	> 100 µM	–	> 100 µM	–	61.7 µM	–	> 100 µM	–	> 100 µM	–	> 100 µM	–	> 100 µM	–	> 100 µM	–	> 100 µM	–	> 100 µM
CCCCN=C(NC#N)NCCCC	–	> 100 µM	–	> 100 µM	–	> 100 µM	–	> 100 µM	–	> 100 µM	–	> 100 µM	–	> 100 µM	–	> 100 µM	–	> 100 µM	–	> 100 µM
CCN(CC)c1ccc(/C=C/c2ccc3cc(C)ccc3[n+]2CC)cc1	0.141 µM	0.732 µM	0.158 µM	6.21 µM	0.036 µM	13.5 µM	0.691 µM	7.45 µM	0.0771 µM	2.19 µM	0.0621 µM	13.4 µM	0.0787 µM	13.2 µM	1.32 µM	12.9 µM	0.107 µM	12.6 µM	0.406 µM	16.5 µM
FC(F)(F)c1cccc(Nc2nccc(-c3cnn4nc(-c5ccccc5)ccc34)n2)c1	> 22.6 µM	> 25 µM	8.1 µM	> 20.7 µM	> 16.3 µM	> 25 µM	10.8 µM	> 23.1 µM	6.88 µM	> 18.4 µM	> 17.1 µM	> 25 µM	> 21.2 µM	> 25 µM	8.5 µM	24.4 µM	6.54 µM	> 18.4 µM	10.3 µM	> 19.2 µM
